Like-named read-outs stand apart in the source and are kept apart here. One block for each compound: values may come before it.
How the values were obtained:
human recombinant COX-1 = assay: Cyclooxygenase inhibition assay (EIA kit), COX-1; format: biochemical; details: COX-1 over COX-2
human recombinant COX-2 = biological target: T1, human recombinant COX-2 (Homo sapiens, UniProt P35354); assay: Cyclooxygenase inhibition assay (EIA kit), COX-2; format: biochemical; details: human recombinant COX-2, EIA kit
T1 construct: purchased Cayman Chemical 560131
T1 sequence (P35354 18-604): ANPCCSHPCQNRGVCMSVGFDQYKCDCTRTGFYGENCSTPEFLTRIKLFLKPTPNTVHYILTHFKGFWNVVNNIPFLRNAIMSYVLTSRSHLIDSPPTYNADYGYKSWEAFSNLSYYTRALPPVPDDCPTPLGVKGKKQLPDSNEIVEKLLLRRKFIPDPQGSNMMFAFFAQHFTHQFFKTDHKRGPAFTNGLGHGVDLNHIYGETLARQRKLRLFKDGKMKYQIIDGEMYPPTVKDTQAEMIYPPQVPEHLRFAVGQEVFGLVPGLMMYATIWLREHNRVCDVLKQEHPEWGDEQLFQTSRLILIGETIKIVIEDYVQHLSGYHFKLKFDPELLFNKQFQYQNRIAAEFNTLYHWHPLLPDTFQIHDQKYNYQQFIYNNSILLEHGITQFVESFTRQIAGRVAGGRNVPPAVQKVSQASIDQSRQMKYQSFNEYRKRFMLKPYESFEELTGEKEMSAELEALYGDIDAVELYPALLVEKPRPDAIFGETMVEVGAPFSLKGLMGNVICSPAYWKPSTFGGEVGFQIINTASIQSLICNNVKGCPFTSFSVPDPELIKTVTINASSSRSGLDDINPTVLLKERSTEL

[1] = test system: platelet aggregation induced by ADP; assay: Anti-platelet aggregation assay, ADP-induced; format: cell-based; details: for IC50 / ADP Inhibition Rate (%) ± SD: platelet aggregation induced by 10 μM ADP; for IC50: 4 working concentrations; for ADP Inhibition Rate (%) ± SD: mean ± SD of three values
Description: (§1) Furthermore, the target compounds 10–13 were capable of inhibiting the platelet aggregation induced by 10 μM ADP and 0.33 U/mL collagen.
(§2) The anti-platelet aggregation assays were performed according to the method reported by XIE et al. (Supplementary Materials).

[2] = test system: platelet aggregation induced by collagen; assay: Anti-platelet aggregation assay, collagen-induced; format: cell-based; details: for IC50 / Collagen Inhibition Rate (%) ± SD: platelet aggregation induced by 0.33 U/mL collagen; for IC50: 4 working concentrations; for Collagen Inhibition Rate (%) ± SD: mean ± SD of three values
Description: as §1, §2

COX-1 = details: cited from earlier work; for selectivity index: COX-1 selectivity
COX-2 = details: cited from earlier work
[3] = previous examples of Figure 1, read-out: IC50 COX-1

- COX1 Selectivity Index (human recombinant COX-1): 3.16
- IC50 (human recombinant COX-2): 15.2 µM
- IC50 [1]: 250 nM
- IC50 [2]: 1030 nM
SMILES: O=S(=O)(Nc1ncccn1)c1ccc(/N=C/c2ccccc2O)cc1 [Compound 11, (E)-4-(2-Hydroxybenzylideneamino)-N-(pyrimidin-2-yl)benzenesulfonamide]
- ADP Inhibition Rate (%) ± SD [1]: 84.36 ± 1.64%
- Collagen Inhibition Rate (%) ± SD [2]: 76.35 ± 1.34%

SMILES: CS(=O)(=O)c1ccc(-c2nc(NCc3ccc(F)cc3)cc(C(F)(F)F)n2)cc1 [IX]
- COX-1 activity (COX-1; previous examples of Figure 1): not active
- IC50 (COX-2; previous examples of Figure 1): 7 nM

SMILES: NS(=O)(=O)c1ccc(-c2nccnc2-c2ccc(F)cc2)cc1 [V]
- IC50 (COX-1; [3]): > 300 µM
- IC50 (COX-2; previous examples of Figure 1): 1070 nM

SMILES: COc1ccc(-n2cc(-c3ccco3)c(C(F)(F)F)n2)cc1 [XI]
- IC50 (COX-1; read-out: IC50 COX-1): 3.4 µM
- IC50 (COX-2; Figure 1): > 50000 nM

- COX1 Selectivity Index (human recombinant COX-1): 18.69
- IC50 (human recombinant COX-2): 13.3 µM
- IC50 [1]: 110 nM
- IC50 [2]: 120 nM
SMILES: O=S(=O)(Nc1cnc2ccccc2n1)c1ccc(/N=C/c2ccco2)cc1 [Compound 12, (E)-4-(Furan-2-ylmethyleneamino)-N-(quinoxalin-2-yl)benzenesulfonamide]
- reactivity compared to aspirin, ADP ([1]; fold versus aspirin): 4.45 folds
- ADP Inhibition Rate (%) ± SD [1]: 98.1 ± 1.68%
- activity compared to aspirin, collagen ([2]; fold versus aspirin): 4.25 folds
- Collagen Inhibition Rate (%) ± SD [2]: 95.9 ± 1.39%

- IC50 [1]: 490 nM
- IC50 [2]: 510 nM
SMILES: CC(=O)Oc1ccccc1C(=O)O [Aspirin]
- ADP Inhibition Rate (%) ± SD [1]: 92.36 ± 1.5%
- Collagen Inhibition Rate (%) ± SD [2]: 64.3 ± 1.38%

SMILES: Nc1onc(-c2ccc(Cl)o2)c1-c1ccccc1 [X]
- IC50 (COX-1; read-out: IC50 COX-1): 1.1 µM
- IC50 (COX-2; Figure 1): > 50000 nM

SMILES: Oc1ccc(/C=C/c2cc(O)cc(O)c2)cc1 [Compound II]
- selectivity index (COX-1): around 200 folds
- IC50 (COX-1; read-out: IC50 COX-1): 15 µM

SMILES: Cc1cnc2c(-c3ccc(F)cc3)c(-c3ccc(S(C)(=O)=O)cc3)nn2c1C [VIII]
- IC50 (COX-1; read-out: IC50 COX-1): 13 µM
- IC50 (COX-2): 600 nM

- COX1 Selectivity Index (human recombinant COX-1): 2.87
- IC50 (human recombinant COX-2): 9.26 µM
SMILES: O=S(=O)(Nc1cnc2ccccc2n1)c1ccc(/N=C/c2ccccc2O)cc1 [Compound 13, (E)-4-(2-Hydroxybenzylideneamino)-N-(quinoxalin-2-yl)benzenesulfonamide]
- ADP Inhibition Rate (%) ± SD [1]: 46.32 ± 1.32%
- Collagen Inhibition Rate (%) ± SD [2]: 45.36 ± 1.56%

SMILES: COc1ccc(-c2ncc(C)nc2-c2ccc(S(N)(=O)=O)cc2)cc1 [IV]
- IC50 (COX-1; [3]): 97 µM
- IC50 (COX-2; previous examples of Figure 1): 460 nM

- COX1 Selectivity Index (human recombinant COX-1): 5.86
- IC50 (human recombinant COX-2): 11.3 µM
- IC50 [1]: 370 nM
- IC50 [2]: 620 nM
SMILES: O=S(=O)(Nc1ncccn1)c1ccc(/N=C/c2ccco2)cc1 [Compound 10, (E)-4-(Furan-2-ylmethyleneamino)-N-(pyrimidin-2-yl)benzenesulfonamide]
- ADP Inhibition Rate (%) ± SD [1]: 78.36 ± 1.36%
- Collagen Inhibition Rate (%) ± SD [2]: 89.36 ± 1.23%

SMILES: Nc1ccc(S(=O)(=O)Nc2ccc(Cl)cc2)cc1 [Compound I]
- selectivity index (COX-1): approximately 100 folds
- IC50 (COX-1; read-out: IC50 COX-1): 12 µM

SMILES: NS(=O)(=O)c1ccc(-c2nc(Cl)cc(NCc3cccs3)n2)cc1 [VI]
- SI (COX-2; COX-2 selectivity, Figure 1): > 81,300
- IC50 (COX-2; previous examples of Figure 1): 1.2 nM

SMILES: COc1ccc(-c2nc3ccccc3nc2-c2ccc(S(C)(=O)=O)cc2)cc1 [III]
- IC50 (COX-1; [3]): > 30 µM
- IC50 (COX-2; previous examples of Figure 1): 400 nM
